According to patent publication EP3355943B1, “METHODS AND SYSTEMS FOR TREATING MEDICAL DEVICES AND FLUIDS” (Ethicon, Inc., priority 2015, dated 2017):
Marks after values point to notes of the source that are not given here.

Test: Kinetics of removal of LPS with different agitation techniques in presence of stearate salts
Format: biochemical
Set-up: Endotoxin Detected: unit not given here
Conditions: for Percent (%) Removed: vs SRW Baseline; for Endotoxin Detected: Table 18; for Endotoxin Detected / Endotoxin Detected (EU): 5mL SRW, baseline 1,502
Method: 5mL of SRW was added to each of the tubes. Each solution was tested for endotoxin removal after agitation based on with sonication, vortexing, or test tube rolling. Sonication samples were sonicated at each indicated time interval for 30 seconds at a magnitude of 30. Vortex samples were vortexed at each indicated time interval for 30 seconds at 2500 RPM. Rolling samples were constantly rolling at 10 rpm. The samples were tested on the MCS for endotoxin at 1 minute, 20 minutes, 40 minutes, 60 minutes, and 80 minutes.

Q: For Aluminum Monostearate, which “Percent (%) Removed” value (Rolling, 1 minute) is on record?
A: 85.3%

Q: And the “Percent (%) Removed” value (Rolling, 20 minutes)?
A: 16.1%

Q: And the “Percent (%) Removed” value (Rolling, 40 minutes)?
A: 17.4%

Q: And the “Percent (%) Removed” value (Rolling, 60 minutes)?
A: 55.3%

Q: What about the “Percent (%) Removed” value (Rolling, 80 minutes) of the same molecule?
A: 18.8%

Q: And the “Percent (%) Removed” value (Sonication, 1 minute)?
A: 58.3%

Q: And the “Percent (%) Removed” value (Sonication, 20 minutes)?
A: 73%

Q: What about the “Percent (%) Removed” value (Sonication, 40 minutes) of the same molecule?
A: 75%

Q: And the “Percent (%) Removed” value (Sonication, 60 minutes)?
A: 71.1%

Q: What about the “Percent (%) Removed” value (Sonication, 80 minutes) of the same molecule?
A: 80.6%

Q: What about the “Endotoxin Detected” value (Rolling, 1 minute) of the same molecule?
A: 221*

Q: And the “Endotoxin Detected” value (Rolling, 20 minutes)?
A: 1,260

Q: What about the “Endotoxin Detected” value (Rolling, 40 minutes) of the same molecule?
A: 1,240

Q: What about the “Endotoxin Detected” value (Rolling, 60 minutes) of the same molecule?
A: 672

Q: And the “Endotoxin Detected” value (Rolling, 80 minutes)?
A: 1,220

Q: What about the “Endotoxin Detected” value (Sonication, 1 minute) of the same molecule?
A: 626

Q: What about the “Endotoxin Detected” value (Sonication, 20 minutes) of the same molecule?
A: 406

Q: And the “Endotoxin Detected” value (Sonication, 40 minutes)?
A: 375

Q: What about the “Endotoxin Detected” value (Sonication, 60 minutes) of the same molecule?
A: 434

Q: And the “Endotoxin Detected” value (Sonication, 80 minutes)?
A: 291

Q: And the “Endotoxin Detected” value (Vortexing, 1 minute)?
A: 817

Q: And the “Endotoxin Detected” value (Vortexing, 20 minutes)?
A: 849

Q: And the “Endotoxin Detected” value (Vortexing, 40 minutes)?
A: 786

Q: And the “Endotoxin Detected” value (Vortexing, 60 minutes)?
A: 801

Q: What about the “Endotoxin Detected” value (Vortexing, 80 minutes) of the same molecule?
A: 757

Q: What about the “Percent (%) Removed” value (Vortexing, 1 minute) of the same molecule?
A: 45.6%

Q: And the “Percent (%) Removed” value (Vortexing, 20 minutes)?
A: 43.5%

Q: And the “Percent (%) Removed” value (Vortexing, 40 minutes)?
A: 47.7%

Q: And the “Percent (%) Removed” value (Vortexing, 60 minutes)?
A: 46.7%

Q: And the “Percent (%) Removed” value (Vortexing, 80 minutes)?
A: 49.6%

Q: With `CCCCCCCCCCCCCCCCCC(=O)O` [Magnesium Stearate] as the molecule, how does the “Endotoxin Detected (EU)” value (Rolling, 1 minute) read?
A: 1,060 EU

Q: What about the “Percent (%) Removed” value (Rolling, 1 minute) of the same molecule?
A: 29.4%

Q: And the “Endotoxin Detected (EU)” value (Rolling, 20 minutes)?
A: 1,120 EU

Q: What about the “Percent (%) Removed” value (Rolling, 20 minutes) of the same molecule?
A: 25.4%

Q: And the “Endotoxin Detected (EU)” value (Rolling, 40 minutes)?
A: 1,060 EU

Q: And the “Percent (%) Removed” value (Rolling, 40 minutes)?
A: 29.4%

Q: What about the “Endotoxin Detected (EU)” value (Rolling, 60 minutes) of the same molecule?
A: 1,120 EU

Q: And the “Percent (%) Removed” value (Rolling, 60 minutes)?
A: 25.4%

Q: What about the “Endotoxin Detected (EU)” value (Rolling, 80 minutes) of the same molecule?
A: 1,190 EU

Q: And the “Percent (%) Removed” value (Rolling, 80 minutes)?
A: 20.8%

Q: What about the “Endotoxin Detected (EU)” value (Sonication, 1 minute) of the same molecule?
A: 743 EU

Q: What about the “Percent (%) Removed” value (Sonication, 1 minute) of the same molecule?
A: 50.5%

Q: And the “Endotoxin Detected (EU)” value (Sonication, 20 minutes)?
A: 716 EU

Q: What about the “Percent (%) Removed” value (Sonication, 20 minutes) of the same molecule?
A: 52.3%

Q: And the “Endotoxin Detected (EU)” value (Sonication, 40 minutes)?
A: 824 EU

Q: And the “Percent (%) Removed” value (Sonication, 40 minutes)?
A: 45.1%

Q: And the “Endotoxin Detected (EU)” value (Sonication, 60 minutes)?
A: 884 EU

Q: And the “Percent (%) Removed” value (Sonication, 60 minutes)?
A: 41.1%

Q: What about the “Endotoxin Detected (EU)” value (Sonication, 80 minutes) of the same molecule?
A: 703 EU

Q: What about the “Percent (%) Removed” value (Sonication, 80 minutes) of the same molecule?
A: 53.2%

Q: What about the “Endotoxin Detected (EU)” value (Vortexing, 1 minute) of the same molecule?
A: 884 EU

Q: And the “Percent (%) Removed” value (Vortexing, 1 minute)?
A: 41.1%

Q: And the “Endotoxin Detected (EU)” value (Vortexing, 20 minutes)?
A: 1,000 EU

Q: And the “Percent (%) Removed” value (Vortexing, 20 minutes)?
A: 33.4%

Q: And the “Endotoxin Detected (EU)” value (Vortexing, 40 minutes)?
A: 901 EU

Q: And the “Percent (%) Removed” value (Vortexing, 40 minutes)?
A: 40%

Q: And the “Endotoxin Detected (EU)” value (Vortexing, 60 minutes)?
A: 958 EU

Q: What about the “Percent (%) Removed” value (Vortexing, 60 minutes) of the same molecule?
A: 36.2%

Q: What about the “Endotoxin Detected (EU)” value (Vortexing, 80 minutes) of the same molecule?
A: 1,060 EU

Q: And the “Percent (%) Removed” value (Vortexing, 80 minutes)?
A: 29.4%
